Where two headings read alike, the source gives them in different places. A value given as a limit tells only on which side of the number the result lay.

By IC50 is commonly meant the point on the concentration scale where inhibition reaches its midpoint. By Ki is commonly meant a measure of affinity in units of concentration, obtained from inhibition or displacement.

The target in one test is human Nav1.7 (Homo sapiens (Human), UniProt Q15858). Kind of test: FLIPR or FLIPR TETRA sodium dye assay with KCl and test article pre-incubation. In kind it is cell-based. To be noted: read-out: FLIPR Nav1.7 IC50 (μM) ± SEM.
Another test concerns the target hNav1.7 (Homo sapiens (Human), UniProt Q15858). Kind of test: Electrophysiology (EP) assay, whole-cell patch clamp. In kind it is cell-based. To be noted: hNav1.7 expressing HEK-293 cells, read-out: EP Nav1.7 Ki. How it is done:
Cells: The hNav1.7 expressing HEK-293 cells were plated on 35 mm culture dishes pre-coated with poly-D-lysine in standard DMEM culture media (Mediatech, Inc., Herndon, Va.) and incubated in a 5% CO2 incubator at 37° C. Cultured cells were used approximately 12-48 hours after plating.
Electrophysiology: On the day of experimentation, the 35 mm dish was placed on the stage of an inverted microscope equipped with a perfusion system that continuously perfuses the culture dish with fresh recording media. A gravity driven superfusion system was used to apply test solutions directly to the cell under evaluation. This system consists of an array of glass pipette glass connected to a motorized horizontal translator. The outlet of the shooter was positioned approximately 100 μm from the cell of interest.
Gigaseals were formed and the whole-cell configuration was established in voltage clamp mode, and membrane currents generated by hNav1.7 were recorded in gap-free mode. […] Signals were sampled at 50 kHz and low pass filtered at 3 kHz.
The voltage clamp protocol to examine hNav1.7 currents was as follows. […] The amount of inhibition produced by the test compound was determined by comparing the current amplitude elicited by the test pulse in the absence and presence of the compound. […]

The mark [1] stands for this setting: recombinant human Nav1.7 in HEK293 cells, sodium dye assay with KCl.

human Nav1.7, sequence (Q15858 other isoform, or with tags, fused parts or gaps): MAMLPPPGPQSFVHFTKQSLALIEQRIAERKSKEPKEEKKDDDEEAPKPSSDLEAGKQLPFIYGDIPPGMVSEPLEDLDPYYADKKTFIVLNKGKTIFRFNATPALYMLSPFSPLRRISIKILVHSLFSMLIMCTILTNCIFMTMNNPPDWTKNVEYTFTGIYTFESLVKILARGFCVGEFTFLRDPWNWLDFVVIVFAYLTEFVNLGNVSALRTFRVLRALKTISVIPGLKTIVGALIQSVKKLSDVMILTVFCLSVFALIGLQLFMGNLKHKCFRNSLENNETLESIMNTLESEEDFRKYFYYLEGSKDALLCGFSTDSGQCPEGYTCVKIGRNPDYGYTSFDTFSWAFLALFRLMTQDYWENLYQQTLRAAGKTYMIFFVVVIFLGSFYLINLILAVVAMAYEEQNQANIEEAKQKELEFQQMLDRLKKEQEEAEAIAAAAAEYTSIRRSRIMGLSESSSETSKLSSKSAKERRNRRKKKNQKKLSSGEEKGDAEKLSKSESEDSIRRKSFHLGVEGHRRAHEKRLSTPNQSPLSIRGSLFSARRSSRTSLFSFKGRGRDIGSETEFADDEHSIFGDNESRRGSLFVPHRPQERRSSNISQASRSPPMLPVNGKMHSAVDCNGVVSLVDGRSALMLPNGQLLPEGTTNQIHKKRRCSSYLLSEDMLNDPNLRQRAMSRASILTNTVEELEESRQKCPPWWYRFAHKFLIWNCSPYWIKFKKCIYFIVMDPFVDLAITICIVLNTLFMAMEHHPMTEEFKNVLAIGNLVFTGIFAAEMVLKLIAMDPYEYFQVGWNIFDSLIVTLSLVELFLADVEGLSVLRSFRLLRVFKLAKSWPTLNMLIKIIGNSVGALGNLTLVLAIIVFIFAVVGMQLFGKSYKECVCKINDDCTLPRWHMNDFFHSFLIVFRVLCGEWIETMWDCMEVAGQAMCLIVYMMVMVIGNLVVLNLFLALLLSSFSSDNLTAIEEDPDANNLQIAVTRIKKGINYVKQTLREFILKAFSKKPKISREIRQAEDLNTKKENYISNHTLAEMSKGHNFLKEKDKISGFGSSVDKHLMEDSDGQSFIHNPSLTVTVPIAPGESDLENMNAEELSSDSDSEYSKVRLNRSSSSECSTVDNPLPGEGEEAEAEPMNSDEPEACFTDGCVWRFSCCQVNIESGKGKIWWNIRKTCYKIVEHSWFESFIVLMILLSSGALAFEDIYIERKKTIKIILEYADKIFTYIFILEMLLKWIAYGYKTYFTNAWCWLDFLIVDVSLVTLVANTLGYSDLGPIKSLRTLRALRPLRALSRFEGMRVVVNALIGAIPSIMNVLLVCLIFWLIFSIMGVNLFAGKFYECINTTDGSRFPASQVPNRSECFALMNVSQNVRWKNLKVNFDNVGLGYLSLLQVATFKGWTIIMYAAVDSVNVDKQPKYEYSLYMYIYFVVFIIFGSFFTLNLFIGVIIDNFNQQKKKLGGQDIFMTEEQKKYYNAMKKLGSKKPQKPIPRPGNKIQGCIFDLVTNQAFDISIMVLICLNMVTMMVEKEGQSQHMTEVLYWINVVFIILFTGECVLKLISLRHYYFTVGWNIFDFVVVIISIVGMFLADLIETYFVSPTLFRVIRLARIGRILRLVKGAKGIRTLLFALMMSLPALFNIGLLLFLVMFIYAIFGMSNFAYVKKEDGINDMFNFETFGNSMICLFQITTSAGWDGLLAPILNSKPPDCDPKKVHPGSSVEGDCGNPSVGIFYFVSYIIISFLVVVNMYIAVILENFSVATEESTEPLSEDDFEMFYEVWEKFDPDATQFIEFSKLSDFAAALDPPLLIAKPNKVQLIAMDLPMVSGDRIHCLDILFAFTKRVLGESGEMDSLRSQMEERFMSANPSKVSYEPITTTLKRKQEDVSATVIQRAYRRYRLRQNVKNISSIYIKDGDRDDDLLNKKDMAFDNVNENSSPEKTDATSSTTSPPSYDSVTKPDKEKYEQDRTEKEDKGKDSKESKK
hNav1.7, sequence (Q15858 other isoform, or with tags, fused parts or gaps): as above

For the compound `O=C(NCCO)c1nn(-c2ccc(Oc3ccccc3)cc2)c2ccccc12` [Compound 144, N-(2-hydroxyethyl)-1-(4-phenoxyphenyl)-1H-indazole-3-carboxamide], the IC50 at human Nav1.7 amounted to 0.16 ± 0.049 µM.

In the case of “(S)-3-(1-(4-(4-fluorophenoxy)phenyl)-1H-pyrrolo[2,3-c]pyridin-3-yl)propane-1,2-diol [Compound 170]”, at human Nav1.7 (setting [1]), the IC50 is 1.38 ± 0.542 µM.

Regarding `N#Cc1cc(Oc2ccc(-n3cc(C(=O)C(=O)O)c4cc([C@@H](O)CO)ccc43)cc2)ccc1C(F)(F)F` [Compound 98, (R)-2-(1-(4-(3-cyano-4-(trifluoromethyl)phenoxy)-phenyl)-5-(1,2-dihydroxyethyl)-1H-indol-3-yl)-2-oxoacetic acid], at human Nav1.7 (setting [1]), the IC50 was greater than 20 µM.

For `NCCc1cn(-c2ccc(Oc3ccccc3)cc2)c2ccccc12` [Compound 43, 2-(1-(4-Phenoxyphenyl)-1H-indol-3-yl)ethanamine], the IC50 at human Nav1.7 (setting [1]) was determined as 0.684 ± 0.041 µM.

On to `N#Cc1cccc(Oc2ccc(-n3cc(C[C@H](N)CO)c4ccccc43)cc2)c1` [Compound 57, (S)-5-{4-[3-(2-Amino-3-hydroxypropyl)-1H-indol-1-yl]phenoxy}benzonitrile], for which, on hNav1.7, the Ki worked out at 50 nM. The IC50 at human Nav1.7 (setting [1]) is 0.383 ± 0.081 µM.

As to `N#Cc1cc(Oc2ccc(-n3cc(C(=O)C(N)=O)c4ccccc43)cc2)ccc1C(F)(F)F` [Compound 59, 2-(1-(4-(3-Cyano-4-(trifluoromethyl)phenoxy)phenyl)-1H-indol-3-yl)-2-oxoacetamide], the IC50 on human Nav1.7 was 3.54 ± 0.459 µM.

For `NC(=O)c1nn(-c2ccc(Oc3ccc(C(F)(F)F)cc3)cc2)c2ccc(F)cc12` [Compound 150, 5-fluoro-1-(4-(4-(trifluoromethyl)phenoxy)phenyl)-1H-indazole-3-carboxamide], the IC50 at human Nav1.7 (setting [1]) stood at 6.97 ± 0.934 µM.

Take `N#Cc1cc(Oc2ccc(-n3cc(C(=O)C(=O)NC[C@H](O)CO)c4ccccc43)cc2)ccc1C(F)(F)F` [Compound 68, (S)-2-(1-(4-(3-cyano-4-(trifluoromethyl)phenoxy)-phenyl)-1H-indol-3-yl)-N-(2,3-dihydroxypropyl)-2-oxoacetamide]: the IC50 at human Nav1.7 (setting [1]) turned out to be 0.572 ± 0.137 µM.

`CN(C)CCc1cn(-c2ccc(Oc3ccccc3)cc2)c2ccc(C[C@H]3COC(=O)N3)cc12` [Compound 45, (S)-4-{[3-(2-(Dimethylamino)ethyl)-1-(4-phenoxyphenyl)-1H-indol-5-yl]methyl}oxazolidin-2-one]: on hNav1.7, the Ki was 1310 nM. The IC50 at human Nav1.7 (setting [1]) came out at 1.9 ± 0.636 µM.

Consider `N#Cc1cc(Oc2ccc(-n3cc(C[C@H]4COC(=O)N4)c4ccccc43)cc2)ccc1C(F)(F)F` [Compound 46, (S)-5-{4-[3-((2-Oxooxazolidin-4-yl)methyl)-1H-indol-1-yl]phenoxy}-2-(trifluoromethyl)benzonitrile], for which the half-maximal inhibitory concentration (IC50) at human Nav1.7 (setting [1]) is 0.715 ± 0.126 µM.

Turning to `N#Cc1cc(Oc2ccc(-n3nc(C(N)=O)c4ccccc43)cc2)ccc1C(F)(F)F` [Compound 152, 1-(4-(3-cyano-4-(trifluoromethyl)phenoxy)-phenyl)-1H-indazole-3-carboxamide], the 50% inhibitory concentration (IC50) on human Nav1.7 (setting [1]) came to 0.602 ± 0.053 µM.

`CCOC(=O)C(Cc1c[nH]c2ccc(-c3ccc(Oc4ccccc4)cc3)cc12)[N+](=O)[O-]` (centres unmarked) [Compound 6, 2-Nitro-3-[5-(4-phenoxyphenyl)-1H-indol-3-yl]propionic acid ethyl ester]: the IC50 at human Nav1.7 (setting [1]) worked out at 5.14 ± 0.954 µM.

The values above are taken from patent US10202344B2, “Aryl substituted indoles and the use thereof” (Purdue Pharma L.P., priority 2010, dated 2019).
